Assay results from patent publication US10758534B2 (Vertex Pharmaceuticals Incorporated, priority 2014, dated 2020).
Where two headings read alike, the source gives them in different places.

Biological target: T1, F508del (Homo sapiens, UniProt P13569, DEL508-508)
T1 construct: expressed in transfected cells
Test: Protocol 2: FRET membrane potential optical assay (VIPR), identification of correction compounds
Type: cell-based
Summary of the method: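 Correction of the F508del trafficking defect is scored as forskolin (10 μM)/genistein (20 μM)-stimulated Cl^− efflux in NIH3T3 mouse fibroblasts after a 16 hr, 37° C. compound exposure. Depolarization was followed optically using voltage-sensing FRET dyes.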

[1] = F508del CFTR modulator activity, compounds of Table 1, read-out: EC30
[2] = Table 3, compounds of Table 1 as modulators of CFTR activity, protocol not stated

T1 sequence (P13569 with tags, fused parts or gaps DEL508-508): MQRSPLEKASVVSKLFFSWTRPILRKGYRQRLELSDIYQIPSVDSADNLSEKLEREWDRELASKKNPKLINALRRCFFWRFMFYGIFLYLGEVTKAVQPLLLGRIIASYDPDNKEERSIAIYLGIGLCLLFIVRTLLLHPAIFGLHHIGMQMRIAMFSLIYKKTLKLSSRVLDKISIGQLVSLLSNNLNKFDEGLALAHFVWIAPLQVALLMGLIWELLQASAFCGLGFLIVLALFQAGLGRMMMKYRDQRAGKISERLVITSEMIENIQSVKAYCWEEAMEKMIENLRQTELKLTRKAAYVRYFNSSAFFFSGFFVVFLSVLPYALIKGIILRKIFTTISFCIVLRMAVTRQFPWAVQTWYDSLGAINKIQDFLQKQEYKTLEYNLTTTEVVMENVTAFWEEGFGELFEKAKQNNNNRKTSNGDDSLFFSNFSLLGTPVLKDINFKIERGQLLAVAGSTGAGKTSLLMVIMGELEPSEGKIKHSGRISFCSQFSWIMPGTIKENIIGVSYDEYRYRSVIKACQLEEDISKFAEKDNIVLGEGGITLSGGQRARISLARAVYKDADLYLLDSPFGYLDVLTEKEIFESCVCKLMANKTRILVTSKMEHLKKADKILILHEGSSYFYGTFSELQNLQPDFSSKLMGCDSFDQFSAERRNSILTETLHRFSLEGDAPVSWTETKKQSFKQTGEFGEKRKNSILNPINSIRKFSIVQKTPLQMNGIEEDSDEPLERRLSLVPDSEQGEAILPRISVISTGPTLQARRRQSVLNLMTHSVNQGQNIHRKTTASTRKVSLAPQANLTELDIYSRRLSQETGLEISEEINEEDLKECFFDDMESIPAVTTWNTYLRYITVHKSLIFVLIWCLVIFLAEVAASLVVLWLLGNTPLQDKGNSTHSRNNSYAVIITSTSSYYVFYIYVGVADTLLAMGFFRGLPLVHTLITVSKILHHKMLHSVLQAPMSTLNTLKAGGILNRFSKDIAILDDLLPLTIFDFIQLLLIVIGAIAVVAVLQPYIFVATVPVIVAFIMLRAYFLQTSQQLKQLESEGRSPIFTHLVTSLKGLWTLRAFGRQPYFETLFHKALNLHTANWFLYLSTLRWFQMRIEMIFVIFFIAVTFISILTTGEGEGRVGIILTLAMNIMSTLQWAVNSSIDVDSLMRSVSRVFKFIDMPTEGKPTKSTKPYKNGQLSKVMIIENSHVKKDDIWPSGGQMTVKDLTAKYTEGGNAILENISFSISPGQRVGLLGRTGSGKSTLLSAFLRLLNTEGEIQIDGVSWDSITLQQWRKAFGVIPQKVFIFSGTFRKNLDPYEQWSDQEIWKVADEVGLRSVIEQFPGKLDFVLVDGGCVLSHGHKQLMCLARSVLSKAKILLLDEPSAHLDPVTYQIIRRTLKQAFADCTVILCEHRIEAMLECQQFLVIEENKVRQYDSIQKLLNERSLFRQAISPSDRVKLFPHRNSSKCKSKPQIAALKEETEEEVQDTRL

| EC30 [1] | EC30 [2] | SMILES |
| --- | --- | --- |
| 3 to 10 µM | – | Cc1c(F)cccc1-c1ccc(C(=O)NS(=O)(=O)N2CC[C@H](N)C2)c(N2C[C@@H](C)CC2(C)C)n1 [Compound 2199, N-[(3S)-3-aminopyrrolidin-1-yl]sulfonyl-6-(3-fluoro-2-methyl-phenyl)-2-[(4S)-2,2,4-trimethylpyrrolidin-1-yl]pyridine-3-carboxamide] |
| < 3 µM | – | Cc1c(F)cccc1-c1ccc(C(=O)NS(=O)(=O)c2cccc(N)n2)c(N2C[C@@H](C)CC2(C)C)n1 [Compound 2616, N-[(6-amino-2-pyridyl)sulfonyl]-6-(3-fluoro-2-methyl-phenyl)-2-[(4S)-2,2,4-trimethylpyrrolidin-1-yl]pyridine-3-carboxamide] |
| – | +++ (“+++” means <3 uM) | Cc1cc(C)c(Cn2c(C(=O)NS(=O)(=O)c3ccncc3)cc3c(Cl)cccc32)c(C)c1 [Compound 82, 4-chloro-N-(4-pyridylsulfonyl)-1-[(2,4,6-trimethylphenyl)methyl]indole-2-carboxamide] |
| – | +++ (“+++” means <3 uM) | COc1ccc(OC)c(-c2cc(C(=O)NS(=O)(=O)c3ccccc3)n(Cc3c(C)cccc3C)n2)c1 [Compound 100, N-(benzenesulfonyl)-5-(2,5-dimethoxyphenyl)-2-[(2,6-dimethylphenyl)methyl]pyrazole-3-carboxamide] |
| – | + (“+” means greater than 10 uM) | COC(=O)C(C(=O)c1cc(C(C)(C)C)nn1Cc1c(C)cccc1C)S(=O)(=O)c1ccccc1 (stereo not drawn) [Compound 4, Methyl 2-(benzenesulfonyl)-3-[5-tert-butyl-2-[(2,6-dimethylphenyl)methyl]pyrazol-3-yl]-3-oxo-propanoate] |
| – | +++ (“+++” means <3 uM) | Cc1cc(C(C)(C)C)cc(C)c1Cn1nc(C(C)(C)C)cc1C(=O)NS(=O)(=O)c1cccc(N)c1 [Compound 156, N-(3-aminophenyl)sulfonyl-5-tert-butyl-2-[(4-tert-butyl-2,6-dimethyl-phenyl)methyl]pyrazole-3-carboxamide] |
| 3 to 10 µM | – | C[C@@H]1CN(c2nc(C(C)(C)C)c(C3=CCN(C(=O)NC4CCCCC4)CC3)cc2C(=O)NS(=O)(=O)c2cccc(N)n2)C(C)(C)C1 [Compound 2520, N-[(6-amino-2-pyridyl)sulfonyl]-6-tert-butyl-5-[1-(cyclohexylcarbamoyl)-3,6-dihydro-2H-pyridin-4-yl]-2-[(4S)-2,2,4-trimethylpyrrolidin-1-yl]pyridine-3-carboxamide] |
| 3 to 10 µM | – | C[C@@H]1CN(c2nc(O[C@H]3CCOC3)c(F)cc2C(=O)NS(=O)(=O)c2cccc(N)n2)C(C)(C)C1 [Compound 2056, N-[(6-amino-2-pyridyl)sulfonyl]-5-fluoro-6-[(3S)-tetrahydrofuran-3-yl]oxy-2-[(4S)-2,2,4-trimethylpyrrolidin-1-yl]pyridine-3-carboxamide] |
| < 3 µM | – | CC(C)Oc1cccc(-c2ccc(C(=O)NS(=O)(=O)N3CC[C@H](N)C3)c(N3C[C@@H](C)CC3(C)C)n2)c1 [Compound 2156, N-[(3S)-3-aminopyrrolidin-1-yl]sulfonyl-6-(3-isopropoxyphenyl)-2-[(4S)-2,2,4-trimethylpyrrolidin-1-yl]pyridine-3-carboxamide] |
| 3 to 10 µM | – | Cc1ccc(-c2ccc(C(=O)NS(=O)(=O)N3CC[C@H](N)C3)c(N3C[C@@H](C)CC3(C)C)n2)cc1F [Compound 2587, N-[(3S)-3-aminopyrrolidin-1-yl]sulfonyl-6-(3-fluoro-4-methyl-phenyl)-2-[(4S)-2,2,4-trimethylpyrrolidin-1-yl]pyridine-3-carboxamide] |
| < 3 µM | – | CC1CN(c2ncccc2C(=O)NS(=O)(=O)c2cccc(OC3CCC(C(C)C)CC3)n2)C(C)(C)C1 (stereo not drawn) [Compound 2173, N—[[6-(4-isopropylcyclohexoxy)-2-pyridyl]sulfonyl]-2-(2,2,4-trimethylpyrrolidin-1-yl)pyridine-3-carboxamide] |
| < 3 µM | – | C[C@@H]1CN(c2nc(-c3ccccc3C#N)ccc2C(=O)NS(=O)(=O)c2cccnc2N)C(C)(C)C1 [Compound 2437, N-[(2-amino-3-pyridyl)sulfonyl]-6-(2-cyanophenyl)-2-[(4S)-2,2,4-trimethylpyrrolidin-1-yl]pyridine-3-carboxamide] |
| – | ++ (“++” means between 3 uM and 10 uM) | CC(C)Oc1ccc(-c2ccc(C(=O)NS(=O)(=O)c3cccc(N)n3)c(N3CCCC(F)C3)n2)cn1 (stereo not drawn) [Compound 745, N-[(6-amino-2-pyridyl)sulfonyl]-2-(3-fluoro-1-piperidyl)-6-(6-isopropoxy-3-pyridyl)pyridine-3-carboxamide] |
| – | +++ (“+++” means <3 uM) | C=Cc1ccc(C(=O)NS(=O)(=O)c2cccc(N)n2)c(Oc2c(C)cc(C)cc2C)n1 [Compound 430, N-[(6-amino-2-pyridyl)sulfonyl]-2-(2,4,6-trimethylphenoxy)-6-vinyl-pyridine-3-carboxamide] |
| < 3 µM | – | CC1CCN(c2cccc(S(=O)(=O)NC(=O)c3cccnc3N3CC(C)CC3(C)C)n2)C1 (stereo not drawn) [Compound 2116, N—[[6-(3-methylpyrrolidin-1-yl)-2-pyridyl]sulfonyl]-2-(2,2,4-trimethylpyrrolidin-1-yl)pyridine-3-carboxamide] |
| 3 to 10 µM | – | CC(C)Oc1ccn(-c2ccc(C(=O)NS(=O)(=O)c3ccc[nH]c3=O)c(N3C[C@@H](C)CC3(C)C)n2)n1 [Compound 2360, 6-(3-isopropoxypyrazol-1-yl)-N-[(2-oxo-1H-pyridin-3-yl)sulfonyl]-2-[(4S)-2,2,4-trimethylpyrrolidin-1-yl]pyridine-3-carboxamide] |
| – | ++ (“++” means between 3 uM and 10 uM) | CC(C)(C)c1ccc(C(=O)NS(=O)(=O)c2cccc(N)n2)c(-c2ccc(F)cc2)n1 [Compound 417, N-[(6-amino-2-pyridyl)sulfonyl]-6-tert-butyl-2-(4-fluorophenyl)pyridine-3-carboxamide] |
| – | ++ (“++” means between 3 uM and 10 uM) | Cc1cc(C(=O)NS(=O)(=O)c2cccc(N)n2)c(N2[C@H](C)CC[C@@H]2C)nc1-c1ccc(OC(C)C)nc1 [Compound 486, N-[(6-amino-2-pyridyl)sulfonyl]-2-[(2R,5S)-2,5-dimethylpyrrolidin-1-yl]-6-(6-isopropoxy-3-pyridyl)-5-methyl-pyridine-3-carboxamide] |
| < 3 µM | – | CC1CN(c2ncccc2C(=O)NS(=O)(=O)c2cccc(O[C@@H](C)c3ccccc3)n2)C(C)(C)C1 (stereo partly drawn) [Compound 2186, N—[[6-[(1S)-1-phenylethoxy]-2-pyridyl]sulfonyl]-2-(2,2,4-trimethylpyrrolidin-1-yl)pyridine-3-carboxamide] |
| 3 to 10 µM | – | CC1CN(c2ncccc2C(=O)NS(=O)(=O)c2cccc(N3CCC(CCN(C)C)CC3)n2)C(C)(C)C1 (stereo not drawn) [Compound 2383, N—[[6-[4-(2-dimethylaminoethyl)-1-piperidyl]-2-pyridyl]sulfonyl]-2-(2,2,4-trimethylpyrrolidin-1-yl)pyridine-3-carboxamide] |
| – | +++ (“+++” means <3 uM) | Cc1cc(C)c(Oc2nc(C(F)(F)F)ccc2C(=O)NS(=O)(=O)c2cccc(N)c2)c(C)c1 [Compound 96, N-(3-aminophenyl)sulfonyl-6-(trifluoromethyl)-2-(2,4,6-trimethylphenoxy)pyridine-3-carboxamide] |
| < 3 µM | – | CC1CN(c2ncccc2C(=O)NS(=O)(=O)c2cccc(OCC3COc4ccccc4C3)n2)C(C)(C)C1 (stereo not drawn) [Compound 2595, N—[[6-(chroman-3-ylmethoxy)-2-pyridyl]sulfonyl]-2-(2,2,4-trimethylpyrrolidin-1-yl)pyridine-3-carboxamide] |
| < 3 µM | – | Cc1ccc(O)c(-c2ccc(C(=O)NS(=O)(=O)c3cccc(N)n3)c(N3C[C@@H](C)CC3(C)C)n2)c1 [Compound 2034, N-[(6-amino-2-pyridyl)sulfonyl]-6-(2-hydroxy-5-methyl-phenyl)-2-[(4S)-2,2,4-trimethylpyrrolidin-1-yl]pyridine-3-carboxamide] |
| – | + (“+” means greater than 10 uM) | C[C@H](c1ccccc1)n1nc(C(C)(C)C)cc1C(=O)NS(=O)(=O)c1cccc(N)c1 [Compound 540, N-(3-aminophenyl)sulfonyl-5-tert-butyl-2-[1(1R)-1-phenylethyl]pyrazole-3-carboxamide] |
| < 3 µM | – | CC1CN(c2ncccc2C(=O)NS(=O)(=O)c2cccc(Oc3ccc4c(c3)OCO4)n2)C(C)(C)C1 (stereo not drawn) [Compound 2013, N—[[6-(1,3-benzodioxol-5-yloxy)-2-pyridyl]sulfonyl]-2-(2,2,4-trimethylpyrrolidin-1-yl)pyridine-3-carboxamide] |
| 3 to 10 µM | – | CC1CN(c2ncccc2C(=O)NS(=O)(=O)c2cccc(N3CCOCC3)n2)C(C)(C)C1 (stereo not drawn) [Compound 2464, N-[(6-morpholino-2-pyridyl)sulfonyl]-2-(2,2,4-trimethylpyrrolidin-1-yl)pyridine-3-carboxamide] |
| – | ++ (“++” means between 3 uM and 10 uM) | COc1ccccc1CCn1nc(C(C)(C)C)cc1C(=O)NS(=O)(=O)c1ccccc1 [Compound 157, N-(benzenesulfonyl)-5-tert-butyl-2-[2-(2-methoxyphenyl)ethyl]pyrazole-3-carboxamide] |

| SMILES | EC30 [1] | EC30 [2] |
| --- | --- | --- |
| CC(C)COc1ccc(-c2ccc(C(=O)NS(=O)(=O)c3cccc(N)n3)c(N3CC(C)CC3(C)C)n2)cc1 (stereo not drawn) [Compound 440, N-[(6-amino-2-pyridyl)sulfonyl]-6-(4-isobutoxyphenyl)-2-(2,2,4-trimethylpyrrolidin-1-yl)pyridine-3-carboxamide] | – | +++ (“+++” means <3 uM) |
| CC(C)COc1cc(F)cc(-c2ccc(C(=O)NS(=O)(=O)c3cccc(N)n3)c(N3C[C@@H](C)CC3(C)C)c2F)c1 [Compound 2634, N-[(6-amino-2-pyridyl)sulfonyl]-3-fluoro-4-(3-fluoro-5-isobutoxy-phenyl)-2-[(4S)-2,2,4-trimethylpyrrolidin-1-yl]benzamide] | < 3 µM | – |
| CC(C)COc1ccccc1-c1ccc(C(=O)NS(=O)(=O)c2ccc[nH]c2=O)c(N2C[C@@H](C)CC2(C)C)n1 [Compound 2629, 6-(2-isobutoxyphenyl)-N-[(2-oxo-1H-pyridin-3-yl)sulfonyl]-2-[(4S)-2,2,4-trimethylpyrrolidin-1-yl]pyridine-3-carboxamide] | < 3 µM | – |
